Measurements: US9663463B2, “3-azabicyclo[3.1.0]hexane derivative and use thereof for medical purpose” (priority 2013, dated 2017)
Counter-ions that a name gives are not always drawn.

Target: human μ-opioid receptor (Homo sapiens (Human), UniProt P35372)
Assay: Antagonist activity test using [35S]-GTPγS bond as index using human μ-opioid receptor-expressing cell membrane
Type: biochemical
Protocol: Cells in which a human μ-opioid receptor had been highly expressed was purchased from ChanTest (Cleveland). The cells were cultured in a carbon dioxide gas culturing apparatus by using a Ham's F12 culture medium (Invitrogen) containing 10% of fetal bovine blood serum, 1% of non-essential amino acids, 0.4 mg/ml of G418, 100 U/ml of penicillin and 100 μg/ml of streptomycin. The cultured cells were suspended by using a 0.25% trypsin 1 mM EDTA solution, the suspension was collected by using phosphate-buffered saline and centrifuged at 4° C. and 1,000 rpm for 10 minute to remove the supernatant, whereby a cell mass was obtained. […] Similar homogenization and centrifugation operations were repeated on the sediment, a homogenized buffer was added again to the obtained sediment, and the resultant was similarly homogenized to give a membrane fraction solution. The obtained membrane fraction solution was dispensed, rapidly frozen and stored under freezing at −70° C. or less until use. Furthermore, the protein concentration of the obtained membrane fraction solution was measured by using a BCA protein Assay Kit (Cat. 23227, Pierce) according to the protocol attached to the kit.
The cell membrane fraction solution in which the human μ-opioid receptor had expressed, which had been stored under freezing, was melted, a GTP assay buffer (100 mM NaCl, 5 mM MgCl2, 1 mM EDTA-containing 50 mM Hepes (pH 7.4)) was added thereto, and the resultant was homogenized repeatedly twice by using a Polytron homogenizer (SMT Multi Disperser PB95) under ice cooling at 12,000 rpm for 20 seconds to give a homogeneous solution, and the homogeneous solution was diluted to 0.036 mg/ml with a GTP assay buffer containing 18.2 μM of GDP (final concentration: […]). The dilution was incubated for 15 minutes or more under ice cooling until the reaction was initiated. […] [^35S]-GTPγS (NEG030X, Perkinelmer) was diluted with a GTP assay buffer so as to be 0.616 nM (final concentration: 0.08 nM). The resultant was diluted with a GTP assay buffer so as to be 200 nM (final concentration: 10 nM) by using [D-Ala^2, N-Me-Phe^4, Gly^5-ol]-enkephalinacetate (DAMGO, Sigma) as a μ-opioid receptor agonist. WGA Coated PVT SPA Beads (RPNQ0001, Perkinelmer) were added so as to be 20 mg/ml with a GTP assay buffer, and the resultant was suspended (final concentration: 1 mg/well). 4 μL/well of a test substance solution, 10 μL/well of a DAMGO solution, 26 μL/well of a [^35S]-GTPγS solution, […] of a suspension liquid of WGA Coated PVT SPA Beads, and 110 μL/well of the membrane fraction solution were added to a 96 well plate (1450-401, Perkinelmer), the top part of the plate was sealed, and a reaction was performed at 30° C. for 60 minutes under stirring with a plate shaker. For each measurement plate, a well to which DMSO had been added instead of the test substance, and a well to which DMSO had been added instead of the test substance and a GTP assay buffer had been added instead of the DAMGO solution were prepared. Furthermore, after the reaction was completed, the reactant was centrifuged at room temperature and 1,000 rpm for 3 minutes, and the radioactivity was measured by a microplate scintillation luminescence counter (Perkinelmer).
The IC50 value of the test substance was calculated by using Graphpad Prism 5.

| SMILES | IC50 [nM] |
| --- | --- |
| CC[C@]1(c2cc(NS(=O)(=O)C3CC3)ccc2F)[C@@H]2CN(CCCC3CCC(F)(F)CC3)C[C@@H]21 [Example 5-(b), N-(3-{(1R,5S,6r)-3-[3-(4,4-difluorocyclohexyl)propyl]-6-ethyl-3-azabicyclo[3.1.0]hexan-6-yl}-4-fluorophenyl)cyclopropanesulfonamide hydrochloride] | 1.6 |
| CC[C@]1(c2cccc(NS(=O)(=O)C3CC3)c2)[C@@H]2CN(CCCN3CCCC(F)(F)C3)C[C@@H]21 [Example 16-(b), N-(3-{(1R,5S,6r)-3-[3-(3,3-difluoropiperidin-1-yl)propyl]-6-ethyl-3-azabicyclo[3.1.0]hexan-6-yl}phenyl)cyclopropanesulfonamide hydrochloride] | 3.1 |
| CC[C@]1(c2cc(NS(=O)(=O)C3CC3)ccc2F)[C@@H]2CN(CCCN3CCC(F)(F)CC3)C[C@@H]21 [Example 15-(b), N-(3-{(1R,5S,6r)-3-[3-(4,4-difluoropiperidin-1-yl)propyl]-6-ethyl-3-azabicyclo[3.1.0]hexan-6-yl}-4-fluorophenyl)cyclopropanesulfonamide hydrochloride] | 1.7 |
| CC[C@]1(c2cc(NS(=O)(=O)C3CC3)ccc2F)[C@@H]2CN(CC3(O)Cc4ccccc4C3)C[C@@H]21 [Example 2-(b), N-(3-{(1R,5S,6r)-6-ethyl-3-[(2-hydroxy-2,3-dihydro-1H-inden-2-yl)methyl]-3-azabicyclo[3.1.0]hexan-6-yl}-4-fluorophenyl)cyclopropanesulfonamide hydrochloride] | 2 |
| CC[C@]1(c2cc(F)cc(NS(=O)(=O)C3CC3)c2)[C@@H]2CN(CC3(O)Cc4ccccc4C3)C[C@@H]21 [Example 10-(b), N-(3-{(1R,5S,6r)-6-ethyl-3-[(2-hydroxy-2,3-dihydro-1H-inden-2-yl)methyl]-3-azabicyclo[3.1.0]hexan-6-yl}-5-fluorophenyl)cyclopropanesulfonamide hydrochloride] | 3.2 |
| CC[C@]1(c2cccc(NS(=O)(=O)C3CC3)c2)[C@@H]2CN(CCCN3CCC(F)(F)C3)C[C@@H]21 [Example 8-(b), N-(3-{(1R,5S,6r)-3-[3-(3,3-difluoropyrrolidin-1-yl)propyl]-6-ethyl-3-azabicyclo[3.1.0]hexan-6-yl}phenyl)cyclopropanesulfonamide hydrochloride] | 2.9 |
| CC[C@]1(c2cccc(NS(=O)(=O)C3CC3)c2)[C@@H]2CN(CCCC3CCC(F)(F)CC3)C[C@@H]21 [Example 4-(b), N-(3-{(1R,5S,6r)-3-[3-(4,4-difluorocyclohexyl)propyl]-6-ethyl-3-azabicyclo[3.1.0]hexan-6-yl}phenyl)cyclopropanesulfonamide hydrochloride] | 1.5 |
